From paper PMC5816697 (European journal of medicinal chemistry, 2018) come the findings set out here.

One assay has as its system Ba/F3 BCR-ABL. In words: MTT growth inhibition assay, Ba/F3 cells expressing Bcr-Abl. As to conditions: ratio of IC50 values. Format: cell-based.
Assay [1] deals with phosphorylation of Abl at Y412. In words: Immunoblot of Abl Y412 phosphorylation in BCR-ABL-expressing Ba/F3 cells. The class given is cell-based.
The test system of a further assay is panel of 244 kinases. Nature of the assay: Kinome profiling against a panel of 244 kinases. The class given is biochemical. The settings on record: 1 μM compound.
Assay [2] concerns phosphorylation of MEK and ERK (BRAF^V600E downstream signaling). Nature of the assay: Western blot of MEK/ERK phosphorylation in A375 cells. The class given is cell-based.

Each structure is given as a SMILES string. Entries after “also recorded” stand apart in the source; their conditions may differ.

As for `CC(C)n1nc(C#Cc2cccc3cc(-c4ccc(CN5CCN(C)CC5)cc4)ncc23)c2c(N)ncnc21` [Compound 2f, 1-Isopropyl-3-((3-(4-((4-methylpiperazin-1-yl)methyl)phenyl)isoquinolin-8-yl)ethynyl)-1H-pyrazolo[3,4-d]pyrimidin-4-amine], the “fold less potent than parent compound 1 against Bcr-Abl Ba/F3 cells” value with Ba/F3 BCR-ABL is recorded as 44 fold. Also, the “fold lower potency than compound 1, Abl Y412 phosphorylation” value in assay [1] was “approximately 30 fold”.

`CC(C)n1nc(C#Cc2cccc(NC(=O)c3cccc(C(F)(F)F)c3)c2)c2c(N)ncnc21` [Compound 1]: the “number of kinases inhibited by over 90%” value with panel of 244 kinases stood at 44.

For the compound `CCCS(=O)(=O)Nc1ccc(F)c(C(=O)c2c[nH]c3ncc(-c4ccc(Cl)cc4)cc23)c1F` [Vem, vemurafenib, reference compound], the “effect on phosphorylation of MEK and ERK” value in assay [2] (concentrations above 1 μM) is “abolished the phosphorylation of MEK and ERK”. In assay [2] (various concentrations, Figure 4), the “effect on phosphorylation of MEK” value is given as “potently blocked phosphorylation of MEK”.

For `CCn1nc(C#Cc2cccc3cc(-c4cccc(C(F)(F)F)c4)ncc23)c2c(N)ncnc21` [Compound 2d, 1-Ethyl-3-((3-(3-(trifluoromethyl)phenyl)isoquinolin-8-yl)ethynyl)-1H-pyrazolo[3,4-d]p yrimidin-4-amine], in assay [2] (concentrations up to 100 μM), the “effect on phosphorylation of MEK” value was “failed to suppress the phosphorylation of MEK; also recorded: little effects”.
